According to a compilation of properties of binary mixtures (doi:10.1021/acs.jced.0c00728):

Test: xn = mol fraction of the nth substance listed
Details: 100 kPa

Compound: CC[n+]1ccn(C)c1.F[B-](F)(F)F + CCC(=O)O
- speed of sound (303.15 K, x1 = 1): 1618 m/s
- speed of sound (313.15 K, x1 = 1): 1595 m/s
- speed of sound (333.15 K, x1 = 1): 1550 m/s

Compound: CCC(=O)O + CC[n+]1ccn(C)c1.F[B-](F)(F)F
- speed of sound (293.15 K, x2 = 0): 1171 m/s
- speed of sound (293.15 K, x2 = 0.0497): 1173 m/s
- speed of sound (293.15 K, x2 = 0.0888): 1213 m/s
- speed of sound (293.15 K, x2 = 0.2982): 1463 m/s
- speed of sound (293.15 K, x2 = 0.3836): 1496 m/s
- speed of sound (293.15 K, x2 = 0.78): 1593 m/s
- speed of sound (293.15 K, x2 = 0.8899): 1617 m/s
- speed of sound (293.15 K, x2 = 0.9453): 1629 m/s
- speed of sound (303.15 K, x2 = 0): 1134 m/s
- speed of sound (303.15 K, x2 = 0.0497): 1145 m/s
- speed of sound (303.15 K, x2 = 0.0888): 1187 m/s
- speed of sound (303.15 K, x2 = 0.1876): 1332 m/s
- speed of sound (303.15 K, x2 = 0.2982): 1442 m/s
- speed of sound (303.15 K, x2 = 0.4908): 1500 m/s
- speed of sound (303.15 K, x2 = 0.5907): 1521 m/s
- speed of sound (303.15 K, x2 = 0.6891): 1548 m/s
- speed of sound (303.15 K, x2 = 0.78): 1572 m/s
- speed of sound (303.15 K, x2 = 0.8899): 1593 m/s
- speed of sound (303.15 K, x2 = 0.9453): 1607 m/s
- speed of sound (313.15 K, x2 = 0.0497): 1111 m/s
- speed of sound (313.15 K, x2 = 0.0888): 1160 m/s
- speed of sound (313.15 K, x2 = 0.1876): 1313 m/s
- speed of sound (313.15 K, x2 = 0.3836): 1456 m/s
- speed of sound (313.15 K, x2 = 0.5907): 1496 m/s
- speed of sound (313.15 K, x2 = 0.6891): 1524 m/s
- speed of sound (313.15 K, x2 = 0.78): 1549 m/s
- speed of sound (313.15 K, x2 = 0.8899): 1571 m/s
- speed of sound (313.15 K, x2 = 0.9453): 1584 m/s
- speed of sound (323.15 K, x2 = 0): 1060 m/s
- speed of sound (323.15 K, x2 = 0.0497): 1080 m/s
- speed of sound (323.15 K, x2 = 0.0888): 1130 m/s
- speed of sound (323.15 K, x2 = 0.1876): 1291 m/s
- speed of sound (323.15 K, x2 = 0.2982): 1396 m/s
- speed of sound (323.15 K, x2 = 0.4908): 1457 m/s
- speed of sound (323.15 K, x2 = 0.6891): 1501 m/s
- speed of sound (323.15 K, x2 = 0.78): 1525 m/s
- speed of sound (333.15 K, x2 = 0): 1025 m/s
- speed of sound (333.15 K, x2 = 0.0497): 1054 m/s
- speed of sound (333.15 K, x2 = 0.0888): 1105 m/s
- speed of sound (333.15 K, x2 = 0.1876): 1270 m/s
- speed of sound (333.15 K, x2 = 0.2982): 1376 m/s
- speed of sound (333.15 K, x2 = 0.3836): 1415 m/s
- speed of sound (333.15 K, x2 = 0.5907): 1463 m/s
- speed of sound (333.15 K, x2 = 0.6891): 1480 m/s
- speed of sound (333.15 K, x2 = 0.78): 1506 m/s
- speed of sound (333.15 K, x2 = 0.8899): 1525 m/s
